Results on twelve compounds are retold here after patent US8093393B2, “Cationic ceramides, and analogs thereof, and their use for preventing or treating cancer” (MUSC Foundation for Research Development, priority 2004, dated 2012).

In general, IC50 refers to the concentration needed to halve the response being measured. The term Solubility denotes the dissolved amount per volume that the medium holds. Low readings indicate a poorly soluble substance, high ones a readily soluble substance.

In data set [1] the test system is MCF7 breast carcinoma cells. Kind of data set: Cell proliferation and viability, Trypan blue exclusion assay. The settings on record: for inhibitory effect on MCF7 cell growth (in words): 48 h; for IC50: 48 h treatment, read-out: IC50, inhibitory effect on MCF7 cell growth. The data set is classed as cell-based. How it is done: FIGS. 5A-5F show the dose dependent effects of CCPS analogs on survival of MCF7 breast carcinoma cells in comparison to the activity of D-e-C6-ceramide, which is commonly used as a model of ceramide action. Cell proliferation and cell viability were determined by Trypan blue exclusion assay. These assays were performed using duplicate samples in two or three independent experiments.
Cell Proliferation: Cells were seeded into plates at a density of approx. 50% corresponding to 1×10^6 cells, in 10 ml of 10% FCS and after an over night incubation the cells were treated with LCL compounds at concentration 0-20 μM in ethanol (ethanol level was kept below 0.1%) and the changes in cell numbers after 48 h were determined and expressed as a percentage of the untreated controls.
Briefly, media was removed, cells were washed twice with PBS, detached using 1% Trypsin and centrifuged at 800 rpm. Cell pellets were resuspended in PBS and Trypan blue (Sigma Chemicals, St. Louis, Mo., USA) was added (1:1 dilution). Under light microscope, the percentage of unstained and stained cells was assessed.
To examine the anticancer activity of CCPS analogs of the invention, their inhibitory effect on MCF7 breast carcinoma cells were analyzed and compared to the activity of D-e-C6-ceramide, which is commonly used as a model of action for ceramides. Cell proliferation and cell viability were determined by Trypan blue exclusion assay.

For the next data set, the system named is UM-SCC-22A cells. Kind of data set: MTT cell survival assay and isobologram studies. In kind it is cell-based, human. For orientation: Tetrazolium dyes change colour on reduction, which living cells bring about.
The nature of data set [2]: Solubility of ceramides and ceramidoids in water.
Where [3] appears, read: Homo sapiens, UM-SCC-22A, MTT, read-out: IC50 of chemotherapeutic agents.
[4] abbreviates: UM-SCC-22A, 48 hr, read-out: IC50, cell growth.
The mark [5] stands for this setting: UM-SCC-22A, 96 hr, DMEM, read-out: IC50, cell growth.

Values after ≈ are worked out from the molar mass of the structure shown. Read-outs that look alike come from different tables or passages of the source.

For “L-erythro-2-N-[6′-(1″-Pyridinium)-hexanoyl]-sphingosine Bromide [LCL187]”, the “inhibitory effect on MCF7 cell growth (in words)” value (“inhibitory effect” for short) in data set [1] was “caused inhibitory effect on MCF7 cell growth”.

As for `CCCCCCCCCCCCC/C=C/[C@@H](O)[C@H](CO)NC(=O)CCc1ccc[n+](CCCC)c1` [LCL277, D-erythro-2-N-[3′-[3″-(1″-Butyl)-pyridinium]-propionoyl]-sphingosine Bromide], the IC50 in data set [1] (listed as LCL-277) came to 13 µM; in data set [1], 8.5 µM.

As to `CN(Cc1cnc2nc(N)nc(N)c2n1)c1ccc(C(=O)N[C@@H](CCC(=O)O)C(=O)O)cc1` [MTX, methotrexate, reference compound], the IC50 in the data set with UM-SCC-22A cells (setting [3]) was 0.1 to 0.25 µM.

As to “D-threo-2-N-[6′-(1″-Pyridinium)-hexanoyl]-sphingosine Bromide [LCL272]”, in data set [1], the “inhibitory effect” value is reported as “caused inhibitory effect on MCF7 cell growth”.

Turning to `CC(=O)O[C@H]1C(=O)[C@@]2(C)[C@H]([C@H](OC(=O)c3ccccc3)[C@]3(O)C[C@H](OC(=O)[C@H](O)[C@@H](NC(=O)c4ccccc4)c4ccccc4)C(C)=C1C3(C)C)[C@]1(OC(C)=O)CO[C@@H]1C[C@@H]2O` [PAX, paclitaxel, reference compound], the IC50 in the data set with UM-SCC-22A cells (setting [3]) fell in the range of 1 to 100 µM.

On to `CCCCCCCCCCCCC/C=C/[C@H](O)[C@H](CO)NC(=O)CCCCCCCCCCCCCCC[n+]1ccccc1.[Br-]` [LCL87, L-threo-2-N-[16′-(1″-Pyridinium)-hexadecanoyl]-sphingosine Bromide], for which the “inhibitory effect” value in data set [1] is “similar, concentration dependent (1.0-10.0 μM) inhibitory effect on cell growth”. For the same compound, the figures for the IC50 in the data set with UM-SCC-22A cells (setting [4]) and in the data set with UM-SCC-22A cells (setting [5]) were roughly 1 µM and roughly 0.3 µM, respectively.

On to `CCCCCCCCCCCCCC=CC(O)C(CO)NC(=O)CCCCCCCCCCC[n+]1ccccc1` (stereo not drawn) [LCL89], for which the IC50 in the data set with UM-SCC-22A cells (setting [4]) was roughly 1 µM; with UM-SCC-22A cells (setting [5]) it was roughly 0.3 µM.

Turning to `CCCCCCCCCCCCC/C=C/[C@@H](O)[C@H](CO)NC(=O)CCCCC[n+]1ccc(C=Cc2ccc(N(C)C)cc2)cc1` [LCL186, D-erythro-2-N-[6′-[1″-[4′″-[(4″″-N,N-Dimethylamino)styryl]-pyridinium]-hexanoyl]]-sphingosine Bromide], in data set [1], the IC50 was roughly 4 µM.

For `CCCCCCCCCCCCC/C=C/[C@@H](O)[C@H](CO)NC(=O)CCCCCCCCCCCCCCC` [C16-Cer, D-erythro-C16-ceramide, reference compound], in data set [2], the “Solubility at 37° C.” value came out at 0.0003 mg/mL (≈ 0.558 µM) and the “Solubility at 37° C. ([mM])” value is “(0.0005) mM”.

On to `CCCCCCCCCCCCC/C=C/[C@@H](O)[C@H](CO)NC(C)=O` [C2-Cer, D-erythro-C2-ceramide, reference compound], for which, in data set [1], the “inhibitory effect” value is “inactive”. In data set [2], the “Solubility at 37° C.” value is recorded as 0.01 mg/mL (≈ 29.3 µM) and the “Solubility at 37° C. ([mM])” value is reported as “(0.029) mM”.

On to `COc1cccc2c1C(=O)c1c(O)c3c(c(O)c1C2=O)C[C@@](O)(C(C)=O)C[C@@H]3O[C@H]1C[C@H](N)[C@H](O)[C@H](C)O1` [DNR, daunorubicin, reference compound], for which, in the data set with UM-SCC-22A cells (Homo sapiens, read-out: IC50 of chemotherapeutic agents), the 50% inhibitory concentration (IC50) fell in the range of 0.1 to 0.25 µM.

`CCCCCCCCCCCCC/C=C/[C@@H](O)[C@H](CO)NC(=O)c1ccc[n+](CCCCCCCC)c1.[Br-]` [LCL275, D-erythro-2-(1′-Octylnicotinoyl)-sphingosine Bromide]: the IC50 in data set [1] (listed as LCL-275) came to 15 µM. In data set [1], the IC50 is roughly 20 µM. Further, in data set [2] (22° C.), the “Solubility at 22° C.” value stood at 62 mg/mL and the “Solubility at 22° C. ([mM])” value is recorded as “(103) mM”. Besides, in data set [2], the “Solubility at 37° C.” value is reported as 120 mg/mL and the “Solubility at 37° C. ([mM])” value is “(200) mM”.
